Reference: ChEMBL document CHEMBL1124621, “Inhibition of mammalian folylpolyglutamate synthetase and human dihydrofolate reductase by 5,8-dideaza analogues of folic acid and aminopterin bearing a terminal L-ornithine” (J Med Chem, 1989)

Tests used:
[1] = target: T1, Dihydrofolate reductase (Homo sapiens, UniProt P00374); test: Inhibition of human dihydrofolate reductase; conditions: read-out: I50
T1 sequence (P00374 whole entry): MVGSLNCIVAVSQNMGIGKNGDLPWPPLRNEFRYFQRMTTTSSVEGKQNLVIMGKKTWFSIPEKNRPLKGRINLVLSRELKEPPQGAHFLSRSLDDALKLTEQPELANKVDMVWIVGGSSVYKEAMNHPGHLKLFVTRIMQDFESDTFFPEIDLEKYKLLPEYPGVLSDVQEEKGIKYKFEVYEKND

[2] = test system: folylpolyglutamate synthetase; test: (§1) Km for hog liver folyl-poly-glutamate synthetase was evaluated; type: ADME, Sus scrofa; conditions: pig, hog liver folylpolyglutamate synthetase
[3] = species: Sus scrofa; test: Maximal elimination rate of metabolism for hog liver folyl-poly-glutamate synthetase was evaluated; type: ADME; design: unit not given here; conditions: pig
[4] = species: Sus scrofa; test: as §1; type: ADME; conditions: pig

SMILES | IC50 [1] [nM] | Km [2] [µM] | Vmax [3] | Km [4] [µM]
NCCCC(NC(=O)c1ccc(SCc2ccc3ncnc(O)c3c2)cc1)C(=O)O (stereo not drawn) | 3800 | – | – | –
NCCCC(NC(=O)c1ccc(SCc2ccc3nc(N)[nH]c(=O)c3c2)cc1)C(=O)O (stereo not drawn) | 1500 | – | – | –
O=C(O)CCC(NC(=O)c1ccc(SCc2ccc3ncnc(O)c3c2)cc1)C(=O)O (stereo not drawn) | – | 8.1 | 50 | –
NCCCC(NC(=O)c1ccc(OCc2ccc3nc[nH]c(=O)c3c2)cc1)C(=O)O (stereo not drawn) | 3800 | – | – | –
O=C(O)CCC(NC(=O)c1ccc(OCc2ccc3ncnc(O)c3c2)cc1)C(=O)O (stereo not drawn) | – | 35 | 95 | –
Nc1nc(O)c2cc(COc3ccc(C(=O)NC(CCC(=O)O)C(=O)O)cc3)ccc2n1 (stereo not drawn) | – | 22 | 25 | –
NCCCC(NC(=O)c1ccc(NCc2ccc3nc(N)nc(N)c3c2Cl)cc1)C(=O)O (stereo not drawn) | 3 | – | – | –
Nc1nc2ncc(CNc3ccc(C(=O)N[C@@H](CCC(=O)O)C(=O)O)cc3)nc2c(=O)[nH]1 (stereo in doubt; form 1) [FOLIC ACID] | – | – | 100 | 7.7
Nc1nc(N)c2c(Cl)c(CNc3ccc(C(=O)NC(CCC(=O)O)C(=O)O)cc3)ccc2n1 (stereo not drawn) | – | 0.2 | 57 | –
NCCCC(NC(=O)c1ccc(OCc2ccc3nc(N)nc(O)c3c2)cc1)C(=O)O (stereo not drawn) | 530 | – | – | –
Nc1nc2ncc(CNc3ccc(C(=O)N[C@@H](CCC(=O)O)C(=O)O)cc3)nc2c(=O)[nH]1 (stereo in doubt; form 2) [FOLIC ACID] | – | – | 61 | 93
NCCCC(NC(=O)c1ccc(NCc2ccc3nc(N)[nH]c(=O)c3c2Cl)cc1)C(=O)O (stereo not drawn) | 430 | – | – | –
Nc1nc(O)c2c(Cl)c(CNc3ccc(C(=O)NC(CCC(=O)O)C(=O)O)cc3)ccc2n1 (stereo not drawn) | 100 | 0.3 | 68 | –
Nc1nc(O)c2cc(CSc3ccc(C(=O)NC(CCC(=O)O)C(=O)O)cc3)ccc2n1 (stereo not drawn) | – | 15 | 33 | –
